Data on 1 cell line can be found in the supplement of paper PMC10307832.

Common to all, as to assay: relative viability (nuclei count vs DMSO), 5 days (fraction); higher = more cells survive
Compound in the assay “BI-D1870 + Luminespib”: CC(C)CCN1c2nc(Nc3cc(F)c(O)c(F)c3)ncc2N(C)C(=O)C1C [BI-D1870] + CCNC(=O)c1noc(-c2cc(C(C)C)c(O)cc2O)c1-c1ccc(CN2CCOCC2)cc1 [Luminespib] (partner 0.01 µM)
The essentials:
(§1)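 Lung cancer cell lines in 1536-well plates got either a single drug or a fixed anchor-drug dose together with five library-drug doses (not always all listed) in √10 steps, by pin tool, on the day after seeding. Nuclei were counted after 5 days, and relative viability is the treated-to-vehicle ratio of nuclei counts. Values are medians of duplicate plates.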

Compound in the assay “Zebularine + Palbociclib”: O=c1ncccn1[C@@H]1O[C@H](CO)[C@@H](O)[C@H]1O [Zebularine] + CC(=O)c1c(C)c2cnc(Nc3ccc(N4CCNCC4)cn3)nc2n(C2CCCC2)c1=O [Palbociclib] (partner 0.5 µM)
The essentials: as §1

Compound in the assay “Zebularine + Phenformin”: O=c1ncccn1[C@@H]1O[C@H](CO)[C@@H](O)[C@H]1O [Zebularine] + N=C(N)NC(=N)NCCc1ccccc1 [Phenformin] (partner 250 µM)
The essentials: as §1

Compound in the assay “Zebularine + Olaparib”: O=c1ncccn1[C@@H]1O[C@H](CO)[C@@H](O)[C@H]1O [Zebularine] + O=C(c1cc(Cc2n[nH]c(=O)c3ccccc23)ccc1F)N1CCN(C(=O)C2CC2)CC1 [Olaparib] (partner 8 µM)
A digest of the protocol:
as §1

For the cell line UMC-11, the relative viability in the assay with BI-D1870 + Luminespib (first compound 0.04 µM) was 1.06; in the assay with BI-D1870 + Luminespib (first compound 0.1265 µM) it was 1.05; with BI-D1870 + Luminespib (first compound 0.4 µM), 0.939; in the assay with BI-D1870 + Luminespib (first compound 1.265 µM), 1.08; with BI-D1870 + Luminespib (first compound 4 µM), 0.206; with Zebularine + Palbociclib (first compound 1 µM) it was 0.329. Moreover, the relative viability was 0.315 with Zebularine + Palbociclib (first compound 3.162 µM); 0.312 in the assay with Zebularine + Palbociclib (first compound 10 µM); 0.344 with Zebularine + Palbociclib (first compound 31.62 µM); 0.308 in the assay with Zebularine + Palbociclib (first compound 100 µM); 0.282 in the assay with Zebularine + Phenformin (first compound 1 µM); 0.344 in the assay with Zebularine + Phenformin (first compound 3.162 µM). Also, the relative viability with Zebularine + Phenformin (first compound 10 µM) is 0.258; with Zebularine + Phenformin (first compound 31.62 µM), 0.327; in the assay with Zebularine + Phenformin (first compound 100 µM), 0.292; with Zebularine + Olaparib (first compound 1 µM) it was 0.407; with Zebularine + Olaparib (first compound 3.162 µM), 0.377; with Zebularine + Olaparib (first compound 10 µM), 0.346. The relative viability in the assay with Zebularine + Olaparib (first compound 31.62 µM) was found to be 0.362; with Zebularine + Olaparib (first compound 100 µM), 0.293.
